Results: ChEMBL document CHEMBL1201862, “PubChem BioAssay data set” (2004)
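Method: 48-hour compound exposure of cells in 96-well plates, five concentrations, linear interpolation of endpoints. GI50 is the concentration that inhibits growth by half.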 The source made the active and inactive calls. Rule as the data show it: active = GI50 up to about 1.1 µM and inactive = higher.

What was measured:
Experiment in all cases: NCI-60 cell line screen, 48 h
786-0 = system: 786-0
A498 = system: A498
A549 = system: A549
BT-549 = system: BT-549
DU-145 = system: DU-145
HCT-116 = system: HCT-116
HOP-92 = system: HOP-92
M14 = system: M14
MDA-MB-435 = system: MDA-MB-435
NCI-H226 = system: NCI-H226
NCI-H23 = system: NCI-H23
NCI-H460 = system: NCI-H460
OVCAR-3 = system: OVCAR-3
PC-3 = system: PC-3
RXF 393 = system: RXF 393
SK-MEL-5 = system: SK-MEL-5
U-251 = system: U-251
UACC-62 = system: UACC-62
SNB-75 = system: SNB-75
SF-539 = system: SF-539

| Compound | GI50 (786-0) | GI50 (A498) | GI50 (A549) | GI50 (BT-549) | GI50 (DU-145) | GI50 (HCT-116) | GI50 (HOP-92) | GI50 (M14) | GI50 (MDA-MB-435) | GI50 (NCI-H226) | GI50 (NCI-H23) | GI50 (NCI-H460) | GI50 (OVCAR-3) | GI50 (PC-3) | GI50 (RXF 393) | GI50 (SK-MEL-5) | GI50 (U-251) | GI50 (UACC-62) | GI50 (SNB-75) | GI50 (SF-539) |
| --- | --- | --- | --- | --- | --- | --- | --- | --- | --- | --- | --- | --- | --- | --- | --- | --- | --- | --- | --- | --- |
| CC1(CCOCc2ccccc2)NC(=O)NC1=O (centres undefined) | > 100 µM (inactive) | > 100 µM (inactive) | > 100 µM (inactive) | > 100 µM (inactive) | > 100 µM (inactive) | > 100 µM (inactive) | > 100 µM (inactive) | > 100 µM (inactive) | > 100 µM (inactive) | > 100 µM (inactive) | > 100 µM (inactive) | > 100 µM (inactive) | > 100 µM (inactive) | > 100 µM (inactive) | > 100 µM (inactive) | > 100 µM (inactive) | > 100 µM (inactive) | > 100 µM (inactive) |  |  |
| Cc1cc(NC[C@H](O)[C@H](O)[C@H](O)CO)c(Sc2cc(=O)[nH]c(=O)[nH]2)cc1C | > 62.5 µM (inactive) | > 62.5 µM (inactive) | > 62.5 µM (inactive) | > 62.5 µM (inactive) | > 62.5 µM (inactive) | > 62.5 µM (inactive) | > 62.5 µM (inactive) | > 62.5 µM (inactive) | > 62.5 µM (inactive) | > 62.5 µM (inactive) | > 62.5 µM (inactive) | > 62.5 µM (inactive) | > 62.5 µM (inactive) | > 62.5 µM (inactive) | > 62.5 µM (inactive) | > 62.5 µM (inactive) | > 62.5 µM (inactive) | > 62.5 µM (inactive) | > 62.5 µM (inactive) |  |
| O=C(CNC(c1ccccc1)(c1ccccc1)c1ccccc1)NC1CCCCC1NC(=O)CNC(c1ccccc1)(c1ccccc1)c1ccccc1 (centres undefined) | 85.7 µM (inactive) | > 100 µM (inactive) | > 100 µM (inactive) | > 100 µM (inactive) | > 100 µM (inactive) | > 100 µM (inactive) | 12 µM (inactive) |  | > 100 µM (inactive) |  | > 100 µM (inactive) | > 100 µM (inactive) | > 100 µM (inactive) | > 100 µM (inactive) |  | > 100 µM (inactive) | 43 µM (inactive) | > 100 µM (inactive) |  | > 100 µM (inactive) |
| Nc1nc(Cl)cc(NCC2(O)CCCC2)n1 | > 100 µM (inactive) | > 100 µM (inactive) | > 100 µM (inactive) | > 100 µM (inactive) | > 100 µM (inactive) | > 100 µM (inactive) | > 100 µM (inactive) |  | > 100 µM (inactive) | > 100 µM (inactive) | > 100 µM (inactive) | > 100 µM (inactive) | > 100 µM (inactive) | > 100 µM (inactive) | > 100 µM (inactive) | > 100 µM (inactive) | > 100 µM (inactive) | > 100 µM (inactive) | > 100 µM (inactive) | > 100 µM (inactive) |
| COc1cc(-c2c(C#N)c(N)c(C#N)c3c2COc2ccccc2-3)cc(OC)c1OC | 7.93 µM (inactive) | 39.3 µM (inactive) | > 100 µM (inactive) | 31.6 µM (inactive) | 43.4 µM (inactive) | > 49.4 µM (inactive) | 16.9 µM (inactive) | > 100 µM (inactive) | > 100 µM (inactive) | 6.92 µM (inactive) | 31.6 µM (inactive) | > 77.3 µM (inactive) | > 42.8 µM (inactive) | > 25.6 µM (inactive) | 16.4 µM (inactive) | > 86.3 µM (inactive) | 12.4 µM (inactive) | 30.2 µM (inactive) |  | 5.35 µM (inactive) |
| C#CCn1c2c(c3ccccc3c1=O)C(=O)c1ccccc1-2 | 14 µM (inactive) | 22.7 µM (inactive) | 13.6 µM (inactive) | 22.1 µM (inactive) | 11.7 µM (inactive) | 19.6 µM (inactive) | 29.9 µM (inactive) | 42.8 µM (inactive) | 67.3 µM (inactive) | 16.7 µM (inactive) | 11.4 µM (inactive) |  | 14.7 µM (inactive) | 11.7 µM (inactive) |  | 2.37 µM (inactive) | 15.2 µM (inactive) | 21.4 µM (inactive) | 13.4 µM (inactive) | 11.6 µM (inactive) |
| Cc1cc(NS(=O)(=O)c2ccc(Nc3c4ccccc4nc4c(C(=O)NC(CO)(CO)CO)cccc34)cc2)no1 | 34.4 µM (inactive) | 47.1 µM (inactive) | 48.1 µM (inactive) | 39.2 µM (inactive) | 48.1 µM (inactive) |  | 32.7 µM (inactive) | 52.5 µM (inactive) | 53.5 µM (inactive) |  | 43.6 µM (inactive) | > 10 µM (inactive) | 39.3 µM (inactive) | 31.3 µM (inactive) |  | 32.4 µM (inactive) | 34.2 µM (inactive) | 22 µM (inactive) | 8.41 µM (inactive) |  |
| CSc1[nH]nc(N)c1C(=O)Nc1ccc(Cl)cc1 | 52.1 µM (inactive) | 73.3 µM (inactive) | 48.4 µM (inactive) | 89.7 µM (inactive) | 68.5 µM (inactive) | 23.6 µM (inactive) |  | 68.9 µM (inactive) | > 100 µM (inactive) | 25.6 µM (inactive) | 36.6 µM (inactive) | 79.4 µM (inactive) | > 100 µM (inactive) | 55.5 µM (inactive) | 22.9 µM (inactive) | > 100 µM (inactive) | 92.3 µM (inactive) | 90.6 µM (inactive) | 75.5 µM (inactive) | 66.2 µM (inactive) |
| COc1ccc(/C(=N/OCCCC(=O)O)c2cccs2)cc1 | > 100 µM (inactive) | > 100 µM (inactive) | > 100 µM (inactive) | > 100 µM (inactive) | > 100 µM (inactive) | > 100 µM (inactive) | > 100 µM (inactive) |  | > 100 µM (inactive) | > 100 µM (inactive) | > 100 µM (inactive) | > 100 µM (inactive) | > 100 µM (inactive) | > 100 µM (inactive) | > 100 µM (inactive) | > 100 µM (inactive) | > 100 µM (inactive) | > 100 µM (inactive) | > 100 µM (inactive) | > 100 µM (inactive) |
| CCOC(=O)c1ccc(C(=O)/C(C#N)=C2\CCCN2C)[nH]1 | > 100 µM (inactive) | > 100 µM (inactive) | > 100 µM (inactive) | > 100 µM (inactive) | > 100 µM (inactive) | > 100 µM (inactive) |  | > 100 µM (inactive) | > 100 µM (inactive) | > 100 µM (inactive) | > 100 µM (inactive) | > 100 µM (inactive) | > 100 µM (inactive) | > 100 µM (inactive) | > 100 µM (inactive) | > 100 µM (inactive) | > 100 µM (inactive) | > 100 µM (inactive) | > 100 µM (inactive) |  |
| Cc1cc2c(c(/C=N/c3ccc([N+](=O)[O-])cc3)c1)OC1(C=C2)Oc2ccccc2C(=O)N1C (centres undefined) | 22.6 µM (inactive) | 16.8 µM (inactive) | 28.2 µM (inactive) | 19.6 µM (inactive) | 22.3 µM (inactive) | 14.6 µM (inactive) | 24.1 µM (inactive) | 23.3 µM (inactive) | 31.2 µM (inactive) | 16 µM (inactive) | 18.2 µM (inactive) | 21.8 µM (inactive) | 29.4 µM (inactive) | 18 µM (inactive) | 18.5 µM (inactive) | 31.8 µM (inactive) | 21.7 µM (inactive) | 17.2 µM (inactive) | 14.6 µM (inactive) |  |
| C/C=C1/CN2CCC34C(=C(C(=O)OC)C1CC23)Nc1ccc(O)cc14 (centres undefined) | 59.3 µM (inactive) | > 100 µM (inactive) | > 100 µM (inactive) | > 100 µM (inactive) | > 100 µM (inactive) | > 100 µM (inactive) | > 100 µM (inactive) | > 100 µM (inactive) | > 100 µM (inactive) | > 100 µM (inactive) | > 100 µM (inactive) | > 100 µM (inactive) | > 100 µM (inactive) | > 100 µM (inactive) |  | > 100 µM (inactive) | > 100 µM (inactive) | > 100 µM (inactive) | > 100 µM (inactive) | > 100 µM (inactive) |
| CCOC(=O)C(Cc1ccc(N(CCCl)CCCl)cc1)NC(=O)C(Cc1ccccc1)NC=O (centres undefined) | 0.116 µM (active) | 0.273 µM (active) | 0.431 µM (active) | 0.437 µM (active) | 0.139 µM (active) | 0.286 µM (active) | 0.126 µM (active) | 0.102 µM (active) | 0.263 µM (active) |  | 0.00906 µM (active) | 0.261 µM (active) | 0.147 µM (active) | 0.27 µM (active) | 0.0614 µM (active) | 0.219 µM (active) | 0.205 µM (active) | 0.094 µM (active) |  | 0.139 µM (active) |
| CCCCCCNC(=O)CCC(NC(=O)c1ccc(N(C)Cc2cnc3nc(N)nc(N)c3n2)cc1)C(=O)NCCCCCC (centres undefined) | > 100 µM (inactive) | > 100 µM (inactive) | > 100 µM (inactive) | > 100 µM (inactive) | 89.3 µM (inactive) | > 100 µM (inactive) | 98.2 µM (inactive) | 73.8 µM (inactive) | > 100 µM (inactive) | > 100 µM (inactive) | > 100 µM (inactive) | 47.2 µM (inactive) | > 100 µM (inactive) | > 100 µM (inactive) | 39.4 µM (inactive) | 7.41 µM (inactive) | > 100 µM (inactive) | 2.68 µM (inactive) | > 100 µM (inactive) |  |
| O=C(O)c1cc2ccccc2c(Cc2c(O)c(C(=O)O)cc3ccccc23)c1O [PAMOIC ACID] | > 100 µM (inactive) | > 100 µM (inactive) | > 100 µM (inactive) | > 100 µM (inactive) | > 100 µM (inactive) | > 100 µM (inactive) | > 100 µM (inactive) | > 100 µM (inactive) | > 100 µM (inactive) | > 100 µM (inactive) | > 100 µM (inactive) | > 100 µM (inactive) | > 100 µM (inactive) | > 100 µM (inactive) | > 100 µM (inactive) | > 100 µM (inactive) | > 100 µM (inactive) | > 100 µM (inactive) |  |  |
